According to US20250169496A1, “USE OF 2-AMINO-3-HYDROXY-3-METHYLBUTYRIC ACID AND/OR 2-AMINO-3-(4-HYDROXYPHENYL) BUTYRIC ACID” (NANJING TIANNONG BIOTECHNOLOGY CO., LTD., priority 2021, published 2025):
“And” between values parts separate entries of the source, which are not always exact repeats. Equal values may be shown once.

What was measured:
cotton under salt stress = test: Hydroponic cotton under salt stress (100 mM NaCl); assay type: in vivo, cotton (Si Kang 1#); conditions: 100 mM NaCl for three days
Method: The experimental material is “Si Kang 1#” cotton. Use 500 mL plastic cups for hydroponic culture and replace the ½Hoagland nutrient solution once every two days. Spray a 2-amino-3-hydroxy-3-methylbutyric acid solution on the leaf surface when the cotton seedlings grow until the second true leaf is fully open, set the concentrations at 0, 1, 10, 100 and 1,000 nM in the experiment, and add 0.02% Tween 20 as a surfactant. Spray once every 24 h, twice in total, add NaCl to the ½Hoagland nutrient solution on the second day after treatment to make its final concentration be 100 mM, and conduct salt stress treatment. Repeat each treatment three times. Rewater after three days of salt stress, observe the salt damage symptoms of cotton, and calculate the salt damage index by the following formula: […]

wheat powdery mildew [1] = test: Induced resistance of wheat seedlings to powdery mildew (greenhouse pots); assay type: in vivo, wheat (NAU0686); conditions: for Relative immune effect: wheat powdery mildew; for Number of mycelia and conidium yield on wheat leaves: 10-10,000 nM, with the increase of concentration
Method: Take 2-amino-3-hydroxy-3-methylbutyric acid, dissolve it in distilled water, then dilute the solution with distilled water by gradient into 10 nM, 100 nM, 1,000 nM and 10,000 nM solutions, and set a blank control. Accelerate germination of wheat (NAU0686) seeds, then sow them in sterilized soil bowls, and culture them in a greenhouse of 23 (±1)° C. and 12 h illumination. Spray the 2-amino-3-hydroxy-3-methylbutyric acid solutions at the above concentrations to the stems and leaves of wheat seedlings when the seedlings have grown to have one leaf and one shoot, at an interval of 24 h and twice in total, evenly sprinkle fresh powdery wheat spores on the wheat leaves after 24 h, 3 pots each treatment, 20 plants per pot. Investigate the morbidity level of the wheat in each treatment after 10 d, record the morbidity level according to the wheat powdery mildew grading standard in the Pesticide—Guidelines for the Field Efficacy Trials(I) and calculate the disease index and relative immune effect by the calculation method same as that for the disease index and relative immune effect of tomato spotted wilt. Wheatpowdery mildew grading standard (with leaf as a unit): • Level 1: The area of the disease spots accounts for less than 5% of the whole leaf area; • Level 3: The area of the disease spots accounts for6%-15% of the whole leaf area; • Level 5: The area of the disease spots accounts for 16%-25% of the whole leaf area; • Level 7: The area of the disease spots accounts for26%-50% of the whole leaf area; • Level 9: The area of the disease spots accounts for more than 50% of the whole leaf area.

[2] = test system: tea under low-temperature stress; test: Tea seedlings under low-temperature stress; assay type: in vivo, tea (Baiye 1#); conditions: for PIABS (photosynthetic performance index): tea seedlings after 24 h at −4° C.; for Cold damage index: tea seedlings, 24 h at −4° C., recovered 3 d; for Decrease of cold damage index / Increase of PIABS: 10,000 nM (so in the source), tea, low-temperature stress, vs 0 nM
Method: The tea trees for test are cutting seedling Baiye 1#. Select tea seedlings with consistent growth, move them into plastic bowls with a diameter of 18 cm, put them in a greenhouse of 25° C. and RH 60%-70%, adapt to growth for about one week, and carry out the test. […] The spray treatment method is the same as the Arabidopsis treatment method in Embodiment 6, the time of low-temperature stress is 24 h, and the temperature is set at −4° C. Take out tea seedlings after stress, conduct dark treatment at room temperature for 30 min, then determine the chlorophyll fluorescence of leaves at the top of tea seedlings by plant efficiency Handy-PEA, then put them in a 25° C. greenhouse and recover them for 3 d, observe and calculate the cold damage condition and grade it. The statistics and grading standard of the cold damage index is shown in Table 12, the calculation formula is as follows and the results are as shown in Table 13. [formula] [table]

[3] = test system: wheat under drought stress; test: Hydroponic wheat under drought stress (25% PEG-6000); assay type: in vivo; conditions: for Drought damage index / Dry weight, overground part / Dry weight, underground part / Fresh weight, overground part / Fresh weight, underground part / Root length: wheat, 6 d 25% PEG-6000, recovered 7 d; for Decrease of drought damage index / Increase of fresh weight of the overground part / Increase of fresh weight of the underground part / Increase of root length of wheat seedlings: compared to the control, drought stress
Method: Use a 6-mesh screen as a container for hydroponic culture of wheat, 50 grains per screen, replace the ½ Hoagland nutrient solution once every two days, spray 2-amino-3-hydroxy-3-methylbutyric acid solutions at2-amino-3-hydroxy-3-methylbutyric acid concentrations of 0, 100 and 1,000 nM when the wheat grows to the stage of two leaves and one shoot, and meanwhile, add 0.02% Tween 20 as a surfactant; after two days of continuous spray, replace the hydroponic nutrient solution with a ½ Hoagland nutrient solution containing 25% PEG-6000 for stress treatment,rewater after 6 d of drought stress, recover growth in a normal nutrient solution for 7 d, then observe and determine the drought damage index, and determine the root length and biomass.
The manifestation features after drought damage of leaves are similar to those after salt damage. By taking reference to the salt damage evaluation indexes, drought damage rate and drought damage index are introduced.

wheat powdery mildew [4] = test: Field test of induced resistance of wheat to powdery mildew; assay type: in vivo; conditions: 1,000 nM; for Thousand kernel weight: dried harvested wheat seeds; for Relative immune effect: vs additive control
Method: Spraya 2-amino-3-hydroxy-3-methylbutyric acid solution (surfactant Tween 20 (0.02% (v/v) is added) at a concentration of 1,000 nM on stems and leaves in the field of Jiangsu Academy of Agricultural Sciences, use surfactant Tween 20 with a spray volume percent of 0.02% as an additive control, Atailing with 30 g sprayed per mu as a positive control, and repeat each treatment for three times. Investigate the wheat morbidity level of each treatment, record the morbidity level according to the wheat powdery mildew grading standard in the Pesticide—Guidelines for the Field Efficacy Trials(I) and calculate the disease index and relative immune effect by the calculation method same as that for the disease index and relative immune effect of tomato spotted wilt. After drying of the harvested wheat seeds, determine the thousand kernel weight of the wheat seeds under different treatments. The wheat powdery mildew grading standard (with leaf as a unit): • Level 1: The area of the disease spots accounts for less than 5% of the whole leaf area; • Level 3: The area of the disease spots accounts for 6%-15% of the whole leaf area; • Level 5: The area of the disease spots accounts for 16%-25% of the whole leaf area; • Level 7: The area of the disease spots accounts for 26%-50% of the whole leaf area; • Level 9: The area of the disease spots accounts for more than 50% of the whole leaf area.

SMILES: CC(c1ccc(O)cc1)C(N)C(=O)O (stereo not shown) [2-amino-3-(4-hydroxyphenyl) butyric acid]
- Death rate (cotton under salt stress; 1 nM): 48%
- Salt damage index (cotton under salt stress; 1 nM): 64%
- Death rate (cotton under salt stress; 10 nM): 45%
- Salt damage index (cotton under salt stress; 10 nM): 56%
- Death rate (cotton under salt stress; 100 nM): 30%
- Salt damage index (cotton under salt stress; 100 nM): 52%
- Death rate (cotton under salt stress; 1,000 nM): 29%
- Salt damage index (cotton under salt stress; 1,000 nM): 43%
- Relative immune effect (wheat powdery mildew [1]; 10 nM): 20.17%
- Relative immune effect (wheat powdery mildew [1]; 100 nM): 34.92%
- Relative immune effect (wheat powdery mildew [1]; 10,000 nM): 71.12%
- Number of mycelia and conidium yield on wheat leaves (wheat powdery mildew [1]): decreased significantly
- PIABS (photosynthetic performance index) ([2]; 1 nM): 28.10 ± 3.10cd
- Cold damage index ([2]; 1 nM): 60%
- PIABS (photosynthetic performance index) ([2]; 10 nM): 31.94 ± 1.37bc
- Cold damage index ([2]; 10 nM): 55%
- PIABS (photosynthetic performance index) ([2]; 100 nM): 34.67 ± 3.27ab
- Cold damage index ([2]; 100 nM): 35%
- PIABS (photosynthetic performance index) ([2]; 1,000 nM): 38.56 ± 2.23a
- Cold damage index ([2]; 1,000 nM): 30%
- Decrease of cold damage index [2]: 40%
- Increase of PIABS [2]: 90.8%
- Drought damage index ([3]; 100 nM): 47%
- Dry weight, overground part ([3]; 100 nM): 0.83 ± 0.01a g
- Dry weight, underground part ([3]; 100 nM): 0.36 ± 0.01a g
- Fresh weight, overground part ([3]; 100 nM): 7.34 ± 0.18b g
- Fresh weight, underground part ([3]; 100 nM): 3.70 ± 0.03b g
- Root length ([3]; 100 nM): 14.02 ± 0.03a cm
- Decrease of drought damage index ([3]; 1,000 nM): 49%
- Increase of fresh weight of the overground part ([3]; 1,000 nM): 45.66%
- Increase of fresh weight of the underground part ([3]; 1,000 nM): 57.93%
- Increase of root length of wheat seedlings ([3]; 1,000 nM): 11.47%
- Drought damage index ([3]; 1,000 nM): 25%
- Dry weight, overground part ([3]; 1,000 nM): 0.93 ± 0.05a g
- Dry weight, underground part ([3]; 1,000 nM): 0.39 ± 0.01a g
- Fresh weight, overground part ([3]; 1,000 nM): 8.90 ± 0.15a g
- Fresh weight, underground part ([3]; 1,000 nM): 4.58 ± 0.01a g
- Root length ([3]; 1,000 nM): 14.67 ± 007a cm
- Thousand kernel weight (wheat powdery mildew [4]): 37.92 g and 37.92 ± 0.21 a g
- Relative immune effect (wheat powdery mildew [4]): 47.28%

SMILES: CC(C)(O)C(N)C(=O)O (stereo not shown) [2-amino-3-hydroxy-3-methylbutyric acid]
- Death rate (cotton under salt stress; 1 nM): 51%
- Salt damage index (cotton under salt stress; 1 nM): 66%
- Death rate (cotton under salt stress; 10 nM): 47%
- Salt damage index (cotton under salt stress; 10 nM): 58%
- Death rate (cotton under salt stress; 100 nM): 34%
- Salt damage index (cotton under salt stress; 100 nM): 54%
- Death rate (cotton under salt stress; 1,000 nM): 30%
- Salt damage index (cotton under salt stress; 1,000 nM): 48%
- Relative immune effect (wheat powdery mildew [1]; 10 nM): 16.85%
- Relative immune effect (wheat powdery mildew [1]; 100 nM): 27.90%
- Relative immune effect (wheat powdery mildew [1]; 1,000 nM): 47.24%
- Relative immune effect (wheat powdery mildew [1]; 10,000 nM): 65.68%
- Number of mycelia and conidium yield on wheat leaves (wheat powdery mildew [1]): decreased significantly
- Disease index (wheat powdery mildew [1]; concentration greater than or equal to 1,000 nM, susceptible wheat, powdery mildew): lower than 50
- PIABS (photosynthetic performance index) ([2]; 10 nM): 28.35 ± 1.66c
- Cold damage index ([2]; 10 nM): 65%
- PIABS (photosynthetic performance index) ([2]; 100 nM): 30.67 ± 2.07bc
- Cold damage index ([2]; 100 nM): 45%
- PIABS (photosynthetic performance index) ([2]; 1,000 nM): 35.23 ± 1.96b
- Cold damage index ([2]; 1,000 nM): 30%
- Decrease of cold damage index [2]: 60%
- Increase of PIABS [2]: 73%
- PIABS (photosynthetic performance index) ([2]; 10,000 nM): 40.16 ± 2.15a
- Cold damage index ([2]; 10,000 nM): 15%
- Drought damage index ([3]; 100 nM): 45%
- Dry weight, overground part ([3]; 100 nM): 0.80 ± 0.01b g
- Dry weight, underground part ([3]; 100 nM): 0.33 ± 0.01a g
- Fresh weight, overground part ([3]; 100 nM): 7.27 ± 0.02b g
- Fresh weight, underground part ([3]; 100 nM): 3.65 ± 0.01b g
- Root length ([3]; 100 nM): 13.94 ± 0.03a cm
- Decrease of drought damage index ([3]; 1,000 nM): 51%
- Increase of fresh weight of the overground part ([3]; 1,000 nM): 44.92%
- Increase of fresh weight of the underground part ([3]; 1,000 nM): 55.02%
- Increase of root length of wheat seedlings ([3]; 1,000 nM): 11.30%
- Drought damage index ([3]; 1,000 nM): 26%
- Dry weight, overground part ([3]; 1,000 nM): 0.92 ± 0.05a g
- Dry weight, underground part ([3]; 1,000 nM): 0.37 ± 0.01a g
- Fresh weight, overground part ([3]; 1,000 nM): 8.84 ± 0.09a g
- Fresh weight, underground part ([3]; 1,000 nM): 4.48 ± 0.02a g
- Root length ([3]; 1,000 nM): 14.58 ± 0.01a cm
- Thousand kernel weight (wheat powdery mildew [4]): 32.61 g and 32.61 ± 0.18 a g
- Relative immune effect (wheat powdery mildew [4]): 38.74%
